Data from ChEMBL document CHEMBL5523716, “Discovery of novel EGFR-PROTACs capable of degradation of multiple EGFR-mutated proteins” (Eur J Med Chem, 2024).
Active and inactive are the calls of the source. No cut-off for these calls is given here.

Experiments:
[1] = tested on: A-431; test: Antiproliferative activity against human A-431 cells harboring EGFR wild type assessed as inhibition of cell growth incubated for 48 to 72 hrs by CCK-8 assay; assay type: functional, cell-based
[2] = Metabolic stability in monkey liver microsomes assessed as elimination rate constant at 1 uM incubated upto 60 mins in presence of NADPH by LC-MS/MS analysis; assay type: ADME, Macaca mulatta, Microsome; conditions: rhesus monkey
[3] = Metabolic stability in dog liver microsomes assessed as elimination rate constant at 1 uM incubated upto 60 mins in presence of NADPH by LC-MS/MS analysis; assay type: ADME, Canis lupus familiaris, Microsome
[4] = Metabolic stability in rat liver microsomes assessed as elimination rate constant at 1 uM incubated upto 60 mins in presence of NADPH by LC-MS/MS analysis; assay type: ADME, Microsome
[5] = Metabolic stability in dog liver microsomes assessed as half-life at 1 uM incubated upto 60 mins in presence of NADPH by LC-MS/MS analysis; assay type: ADME, Canis lupus familiaris, Microsome
[6] = Metabolic stability in rat liver microsomes assessed as intrinsic clearance at 1 uM incubated upto 60 mins in presence of NADPH by LC-MS/MS analysis; assay type: ADME, Microsome; conditions: read-out: CLH
[7] = Cmax in SPF ICR mouse at 2 mg/kg,iv measured upto 24 hrs by LC-MS/MS analysis; assay type: ADME, organism-based; conditions: in vivo
[8] = Cmax in SPF ICR mouse at 5 mg/kg,ip measured upto 24 hrs by LC-MS/MS analysis; assay type: ADME, organism-based; conditions: in vivo
[9] = AUC (0 to infinity) in SPF ICR mouse at 5 mg/kg,ip measured upto 24 hrs by LC-MS/MS analysis; assay type: ADME, organism-based; conditions: in vivo
[10] = molecular target: von Hippel-Lindau disease tumor suppressor/Epidermal growth factor receptor (Homo sapiens, UniProt P00533+P40337); test: PROTAC activity at VHL/EGFR Del19 mutant in human HCC827 cells assessed as induction of EGFR degradation incubated for 72 hrs by Western blot analysis; assay type: cell-based
[11] = tested on: von Hippel-Lindau disease tumor suppressor/Epidermal growth factor receptor (Homo sapiens), P00533+P40337 [L858R,T790M]; test: PROTAC activity at VHL/EGFR L858R/T790M mutant in human NCI-H1975 cells assessed as maximal EGFR degradation at 0.07 to 5 uM incubated for 72 hrs by Western blot analysis relative to control; assay type: cell-based; conditions: dose 0.07-5 µM
[12] = molecular target: von Hippel-Lindau disease tumor suppressor/Epidermal growth factor receptor (Homo sapiens, UniProt P00533+P40337, T790M/C797S/L858R); test: PROTAC activity at VHL/EGFR L858R/T790M/C797S mutant in human H1975-TM cells assessed as induction of EGFR degradation incubated for 48 hrs by Western blot analysis; assay type: cell-based
[13] = tested on: von Hippel-Lindau disease tumor suppressor/Epidermal growth factor receptor (Homo sapiens), P00533+P40337 [L858R,T790M,C797S]; test: PROTAC activity at VHL/EGFR L858R/T790M/C797S mutant in human H1975-TM cells assessed as maximal EGFR degradation at 0.03 to 2.5 uM incubated for 48 hrs by Western blot analysis relative to control; assay type: cell-based; conditions: dose 0.03-2.5 µM
[14] = tested on: von Hippel-Lindau disease tumor suppressor/Epidermal growth factor receptor (Homo sapiens), P00533+P40337 [UNDEFINED MUTATION]; test: PROTAC activity at VHL/EGFR Del19 mutant in human HCC827 cells assessed as downregulation of EGFR phosphorylation incubated for 72 hrs by Western blot analysis; assay type: cell-based
[15] = tested on: von Hippel-Lindau disease tumor suppressor/Epidermal growth factor receptor (Homo sapiens), P00533+P40337 [UNDEFINED MUTATION]; test: PROTAC activity at VHL/EGFR Del19 mutant in human HCC827 cells assessed as downregulation of AKT phosphorylation incubated for 72 hrs by Western blot analysis; assay type: cell-based
[16] = tested on: von Hippel-Lindau disease tumor suppressor/Epidermal growth factor receptor (Homo sapiens), P00533+P40337 [L858R,T790M]; test: PROTAC activity at VHL/EGFR L858R/T790M mutant in human NCI-H1975 cells assessed as downregulation of ERK phosphorylation incubated for 72 hrs by Western blot analysis; assay type: cell-based
[17] = tested on: von Hippel-Lindau disease tumor suppressor/Epidermal growth factor receptor (Homo sapiens), P00533+P40337 [UNDEFINED MUTATION]; test: PROTAC activity at VHL/EGFR Del19 mutant in human HCC827 cells assessed as induction of EGFR degradation at 100 nM by Western blot analysis; assay type: cell-based; conditions: TDE = time-dependent effect
[18] = tested on: von Hippel-Lindau disease tumor suppressor/Epidermal growth factor receptor (Homo sapiens), P00533+P40337 [L858R,T790M,C797S]; test: PROTAC activity at VHL/EGFR L858R/T790M/C797S mutant in human H1975-TM cells assessed as induction of EGFR degradation at 2.5 uM Western blot analysis; assay type: cell-based; conditions: TDE = time-dependent effect
[19] = tested on: von Hippel-Lindau disease tumor suppressor/Epidermal growth factor receptor (Homo sapiens), P00533+P40337 [UNDEFINED MUTATION]; test: PROTAC activity at VHL/EGFR Del19 mutant in human HCC827 cells assessed as induction of EGFR degradation at 100 nM preincubated with MLN-4924 for 6 hrs followed by compound treatment for 48 hrs by Western blot analysis; assay type: cell-based
[20] = tested on: von Hippel-Lindau disease tumor suppressor/Epidermal growth factor receptor (Homo sapiens), P00533+P40337 [L858R,T790M]; test: PROTAC activity at VHL/EGFR L858R/T790M mutant in human NCI-H1975 cells assessed as induction of EGFR degradation at 100 nM preincubated with MLN-4924 for 6 hrs followed by compound treatment for 48 hrs by Western blot analysis; assay type: cell-based
[21] = tested on: von Hippel-Lindau disease tumor suppressor/Epidermal growth factor receptor (Homo sapiens), P00533+P40337 [L858R,T790M,C797S]; test: PROTAC activity at VHL/EGFR L858R/T790M/C797S mutant in human H1975-TM cells assessed as induction of EGFR degradation at 100 nM preincubated with MLN-4924 for 6 hrs followed by compound treatment for 48 hrs by Western blot analysis; assay type: cell-based
[22] = tested on: HCC827; test: Antitumor activity against human HCC827 cells xenografted in BALB/c mouse assessed as tumor growth inhibition at 2.5 mg/kg,ip once daily for 28 days relative to control; assay type: functional; conditions: HCC827, 672 h, time 28 day, read-out: TGI
[23] = tested on: NCI-H1975; test: Antitumor activity against human NCI-H1975 cells xenografted in BALB/c mouse assessed as tumor growth inhibition at 5 mg/kg,ip once daily for 22 days relative to control; assay type: functional; conditions: NCI-H1975, 528 h, time 22 day, read-out: TGI
[24] = tested on: NCI-H1975; test: Antitumor activity against human NCI-H1975 cells xenografted in BALB/c mouse assessed as tumor growth inhibition at 10 mg/kg,ip once daily for 22 days relative to control; assay type: functional; conditions: NCI-H1975, 528 h, time 22 day, read-out: TGI
[25] = tested on: NCI-H1975; test: Antitumor activity against human NCI-H1975 cells xenografted in BALB/c mouse assessed as tumor growth inhibition at 20 mg/kg,ip once daily for 22 days relative to control; assay type: functional; conditions: NCI-H1975, 528 h, time 22 day, read-out: TGI
[26] = tested on: NCI-H1975; test: Antitumor activity against human NCI-H1975 cells xenografted in BALB/c mouse assessed as increase in EGFR degradation in tumor at 20 mg/kg,ip once daily for 22 days by Western blot analysis relative to control; assay type: functional; conditions: time 22 day
[27] = Antitumor activity against human H1975-TM cells xenografted in BALB/c mouse assessed as tumor growth inhibition at 10 mg/kg,ip once daily for 14 days relative to control; assay type: functional; conditions: 336 h, time 14 day, read-out: TGI
[28] = Antitumor activity against human H1975-TM cells xenografted in BALB/c mouse assessed as tumor growth inhibition at 20 mg/kg,ip once daily for 14 days relative to control; assay type: functional; conditions: 336 h, time 14 day, read-out: TGI
[29] = tested on: H1975-TM; test: Antitumor activity against human H1975-TM cells xenografted in BALB/c mouse assessed as downregulation of ERK phosphorylation in tumor at 5 to 20 mg/kg,ip once daily for 14 days by Western blot analysis; assay type: functional, organism-based; conditions: dose 5-20 mg/kg, time 14.0 day

CCN(CC)C/C=C/C(=O)Nc1cc2c(Nc3ccc(F)c(Cl)c3)ncnc2cc1OCc1cn(CCCCCCCC(=O)N[C@H](C(=O)N2C[C@H](O)C[C@H]2C(=O)N[C@H](C)c2ccc(-c3scnc3C)cc2)C(C)(C)C)nn1
IC50 [1]: > 20000 nM | k el at 1 h, 1 µM [2]: 0.0003 s⁻¹ | k el at 1 h, 1 µM [3]: 0.00015 s⁻¹ | k el at 1 h, 1 µM [4]: 6.67e-05 s⁻¹ | half-life at 1 µM [5]: 1.3 h | microsomal CLint at 1 µM [6]: 7.4 µL/min/mg | Cmax [7]: 7830 ng/mL | Cmax [8]: 656 ng/mL | AUC(0-inf) [9]: 2830 ng·h/mL | DC50 [10]: 17.9 nM | Emax [11]: 94% | DC50 [12]: 630 nM | Emax [13]: 94% | Activity [14]: Dose-Dependent Effect | Activity [15]: Dose-Dependent Effect | Activity [16]: Dose-Dependent Effect | Activity [17]: Tde | Activity [18]: Tde | Activity [19]: inactive | Activity [20]: inactive | Activity [21]: inactive | inhibition in vivo at 2.5 mg/kg [22]: 67% | inhibition in vivo at 5 mg/kg [23]: 56% | inhibition in vivo at 10 mg/kg [24]: 79% | inhibition in vivo at 20 mg/kg [25]: 85% | Activity [26]: >75% | inhibition in vivo at 10 mg/kg [27]: 34% | inhibition in vivo at 20 mg/kg [28]: 50% | Activity [29]: Active
